pIC50: −log10 of the molar value. Several values for one entry are separate records, joined by “and”; a condition that tells them apart may be missing. Identical values can stand only once.
How the values were obtained:
HeLa cells = test: Proliferation assay HeLa; format: cell-based; conditions: Homo sapiens, 96 h, read-out: HeLa IC50
MOLM‐13 cells = test: Proliferation assay MOLM‐13; format: cell-based; conditions: Homo sapiens, MOLM-13, 96 h, read-out: MOLM‐13 IC50
MV4‐11 cells = test: Antiproliferative activity MV4‐11; format: cell-based; conditions: Homo sapiens, MV4-11, read-out: MV4‐11 IC50
[1] = Equilibrium shake flask solubility assay; format: physicochemical; conditions: aqueous solubility, phosphate buffer pH 6.5, 24 h; solid state not characterized
[2] = test system: CYP1A2, CYP2C8, CYP2C9, CYP2D6, CYP3A4; test: CYP inhibition in human liver microsomes; format: in vitro ADME
CYP3A4 = test: CYP induction in cultured human hepatocytes; format: in vitro ADME
MOLM‐13 human AML model = test: MOLM‐13 human AML xenograft model in mice; format: in vivo, mouse; conditions: throughout the study, all BAY 1143572 regimens
[3] = MV4‐11 human AML xenograft model in rats; format: in vivo, rat; conditions: female, athymic nude, rat, in vivo, po, 12 mg kg^−1
MV4‐11 human AML model = test: MV4‐11 human AML xenograft model in rats; format: in vivo, rat
CDK3/cyclinE(h) = CDK3/cyclinE(h) (Homo sapiens, UniProt Q00526); test: Merck Millipore KinaseProfiler; format: biochemical; conditions: IC50 CDK3/CycE(h), Millipore panel, 10 µM ATP
Chain of CDK3/cyclinE(h) (Q00526 whole entry): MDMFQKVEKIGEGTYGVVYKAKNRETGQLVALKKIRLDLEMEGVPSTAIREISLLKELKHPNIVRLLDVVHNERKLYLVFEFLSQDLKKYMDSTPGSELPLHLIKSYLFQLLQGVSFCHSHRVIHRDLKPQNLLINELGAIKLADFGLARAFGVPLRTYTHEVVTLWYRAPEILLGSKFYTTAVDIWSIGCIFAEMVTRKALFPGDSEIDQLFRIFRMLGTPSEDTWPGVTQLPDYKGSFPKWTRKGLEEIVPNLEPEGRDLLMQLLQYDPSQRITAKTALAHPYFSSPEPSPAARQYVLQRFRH
Chain of CDK3/cyclinE(h) (P24864 whole entry, further chain): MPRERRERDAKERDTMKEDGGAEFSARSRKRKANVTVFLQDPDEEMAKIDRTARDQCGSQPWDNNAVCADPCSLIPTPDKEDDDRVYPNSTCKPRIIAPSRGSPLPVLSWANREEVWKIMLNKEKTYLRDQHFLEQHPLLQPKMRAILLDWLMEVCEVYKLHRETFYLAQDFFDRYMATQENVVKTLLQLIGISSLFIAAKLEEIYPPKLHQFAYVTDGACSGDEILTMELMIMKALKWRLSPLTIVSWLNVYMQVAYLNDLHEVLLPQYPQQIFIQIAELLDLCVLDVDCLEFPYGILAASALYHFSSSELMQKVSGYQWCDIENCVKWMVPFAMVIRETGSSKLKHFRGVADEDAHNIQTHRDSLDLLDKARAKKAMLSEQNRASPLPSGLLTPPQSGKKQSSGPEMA

Flt3(h) = target: T1, Flt3(h) (Homo sapiens, UniProt P36888); test: Merck Millipore KinaseProfiler; format: biochemical; conditions: Merck Millipore KinaseProfiler panel
T1 sequence (P36888 27-993): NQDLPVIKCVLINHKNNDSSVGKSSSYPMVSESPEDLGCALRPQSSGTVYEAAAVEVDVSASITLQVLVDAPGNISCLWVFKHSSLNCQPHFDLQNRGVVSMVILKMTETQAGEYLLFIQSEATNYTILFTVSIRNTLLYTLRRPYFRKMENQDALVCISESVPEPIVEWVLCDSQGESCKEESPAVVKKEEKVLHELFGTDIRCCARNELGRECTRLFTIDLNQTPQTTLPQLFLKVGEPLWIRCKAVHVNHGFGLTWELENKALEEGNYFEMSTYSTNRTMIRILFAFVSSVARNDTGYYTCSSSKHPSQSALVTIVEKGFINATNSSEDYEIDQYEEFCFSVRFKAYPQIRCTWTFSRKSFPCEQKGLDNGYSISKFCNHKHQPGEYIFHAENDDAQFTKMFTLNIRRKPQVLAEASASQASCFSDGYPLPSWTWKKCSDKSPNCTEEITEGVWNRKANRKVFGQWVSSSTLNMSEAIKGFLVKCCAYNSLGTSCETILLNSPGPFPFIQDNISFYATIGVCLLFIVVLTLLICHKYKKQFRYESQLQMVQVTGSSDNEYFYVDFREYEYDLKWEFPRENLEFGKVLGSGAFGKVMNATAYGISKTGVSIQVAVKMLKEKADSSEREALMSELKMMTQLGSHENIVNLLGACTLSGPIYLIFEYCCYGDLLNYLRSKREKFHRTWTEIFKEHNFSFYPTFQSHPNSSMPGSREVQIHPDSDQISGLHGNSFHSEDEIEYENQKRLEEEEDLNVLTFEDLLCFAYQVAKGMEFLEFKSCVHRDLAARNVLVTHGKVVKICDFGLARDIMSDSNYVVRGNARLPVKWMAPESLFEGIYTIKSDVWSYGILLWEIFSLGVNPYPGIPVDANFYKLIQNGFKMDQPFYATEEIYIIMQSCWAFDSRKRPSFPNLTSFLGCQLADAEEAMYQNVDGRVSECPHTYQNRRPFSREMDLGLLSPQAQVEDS

CDK2/CycE = CDK2/CycE kinase assay; format: biochemical, human; conditions: ratio of IC50 values CDK2/CDK9, in-house assays
[4] = Caco‐2 permeability assay; format: in vitro ADME; conditions: human, Caco-2, pH 7.2
rat hepatocytes = test: Metabolic stability in rat hepatocytes; format: in vitro ADME; conditions: predicted blood clearance from rat hepatocytes, 1 μM
[5] = Metabolic stability in rat liver microsomes; format: in vitro ADME; conditions: predicted blood clearance from rat liver microsomes
[6] = Blood/plasma partitioning in rats; format: in vitro ADME; conditions: rat, blood and plasma
CDK1/cyclinB(h) = CDK1/cyclinB(h) (Homo sapiens, UniProt P06493); test: Merck Millipore KinaseProfiler; format: biochemical; conditions: IC50 CDK1/CycB(h), Millipore panel, 10 µM ATP
Chain of CDK1/cyclinB(h) (P14635 whole entry): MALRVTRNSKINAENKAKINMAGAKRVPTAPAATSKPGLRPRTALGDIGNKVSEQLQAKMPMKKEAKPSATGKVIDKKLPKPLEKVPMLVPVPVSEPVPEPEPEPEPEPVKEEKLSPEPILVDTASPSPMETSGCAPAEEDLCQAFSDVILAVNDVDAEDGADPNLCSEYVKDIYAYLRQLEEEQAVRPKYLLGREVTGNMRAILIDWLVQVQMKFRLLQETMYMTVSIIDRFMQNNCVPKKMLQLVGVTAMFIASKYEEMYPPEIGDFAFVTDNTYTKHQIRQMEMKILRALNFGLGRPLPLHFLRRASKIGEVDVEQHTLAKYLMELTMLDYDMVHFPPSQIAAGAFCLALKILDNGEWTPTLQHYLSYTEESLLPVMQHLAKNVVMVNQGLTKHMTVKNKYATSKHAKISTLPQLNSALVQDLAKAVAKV
Chain of CDK1/cyclinB(h) (P06493 whole entry): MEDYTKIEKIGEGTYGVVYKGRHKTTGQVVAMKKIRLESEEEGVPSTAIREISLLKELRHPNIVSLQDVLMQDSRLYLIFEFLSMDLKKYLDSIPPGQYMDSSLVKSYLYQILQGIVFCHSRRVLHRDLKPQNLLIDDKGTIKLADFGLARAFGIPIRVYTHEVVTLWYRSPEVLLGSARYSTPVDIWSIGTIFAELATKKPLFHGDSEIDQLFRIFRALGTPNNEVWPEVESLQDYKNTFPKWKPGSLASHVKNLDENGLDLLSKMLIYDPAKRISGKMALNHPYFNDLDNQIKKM

CDK2/cyclinE(h) = CDK2/cyclinE(h) (Homo sapiens, UniProt P24941); test: Merck Millipore KinaseProfiler; format: biochemical; conditions: IC50 CDK2/CycE(h), Millipore panel, 10 µM ATP
CDK5/p35(h) = CDK5/p35(h) (Homo sapiens, UniProt Q00535); test: Merck Millipore KinaseProfiler; format: biochemical; conditions: Millipore panel, 10 µM ATP
Chain of CDK5/p35(h) (Q00535 whole entry): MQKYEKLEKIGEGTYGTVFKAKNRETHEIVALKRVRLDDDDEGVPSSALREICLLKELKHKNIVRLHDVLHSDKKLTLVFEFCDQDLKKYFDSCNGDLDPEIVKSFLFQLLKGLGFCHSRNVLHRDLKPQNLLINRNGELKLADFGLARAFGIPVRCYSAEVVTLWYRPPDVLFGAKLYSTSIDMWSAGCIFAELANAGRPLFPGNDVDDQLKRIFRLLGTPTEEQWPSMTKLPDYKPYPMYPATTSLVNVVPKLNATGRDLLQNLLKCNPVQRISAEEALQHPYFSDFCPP
Chain of CDK5/p35(h) (Q15078 whole entry partner): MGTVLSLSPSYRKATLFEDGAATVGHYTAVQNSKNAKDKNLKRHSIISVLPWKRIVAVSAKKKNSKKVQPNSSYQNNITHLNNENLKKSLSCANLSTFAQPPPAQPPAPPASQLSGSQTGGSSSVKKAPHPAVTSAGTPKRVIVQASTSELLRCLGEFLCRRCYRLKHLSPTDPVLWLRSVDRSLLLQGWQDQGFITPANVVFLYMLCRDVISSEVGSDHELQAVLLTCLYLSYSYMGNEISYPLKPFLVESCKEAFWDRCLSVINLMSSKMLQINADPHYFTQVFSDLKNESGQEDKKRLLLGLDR

CDK6/cyclinD3(h) = CDK6/cyclinD3(h) (Homo sapiens, UniProt Q00534); test: Merck Millipore KinaseProfiler; format: biochemical
Chain of CDK6/cyclinD3(h) (Q00534 whole entry): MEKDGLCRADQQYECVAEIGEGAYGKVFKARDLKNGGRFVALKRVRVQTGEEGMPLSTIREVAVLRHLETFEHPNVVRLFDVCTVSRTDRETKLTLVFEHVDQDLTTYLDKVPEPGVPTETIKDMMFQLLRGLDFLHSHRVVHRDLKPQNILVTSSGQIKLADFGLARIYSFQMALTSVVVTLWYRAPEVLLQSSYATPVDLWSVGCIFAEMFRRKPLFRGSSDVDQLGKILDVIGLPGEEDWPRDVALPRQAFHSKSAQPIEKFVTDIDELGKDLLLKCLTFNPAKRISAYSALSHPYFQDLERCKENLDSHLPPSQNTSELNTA
Chain of CDK6/cyclinD3(h) (P30281 whole entry partner): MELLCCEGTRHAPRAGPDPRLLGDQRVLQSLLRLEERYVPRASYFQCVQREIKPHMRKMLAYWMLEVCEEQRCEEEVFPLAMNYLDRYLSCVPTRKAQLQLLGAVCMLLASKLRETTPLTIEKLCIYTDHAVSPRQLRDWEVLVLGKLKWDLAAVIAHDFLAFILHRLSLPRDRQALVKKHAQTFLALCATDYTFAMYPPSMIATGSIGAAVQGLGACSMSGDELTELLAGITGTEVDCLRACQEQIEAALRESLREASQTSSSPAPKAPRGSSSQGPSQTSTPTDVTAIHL

CDK7/cyclinH/MAT1(h) = CDK7/cyclinH/MAT1(h) (Homo sapiens, UniProt P50613); test: Merck Millipore KinaseProfiler; format: biochemical
Chain of CDK7/cyclinH/MAT1(h) (P50613 whole entry): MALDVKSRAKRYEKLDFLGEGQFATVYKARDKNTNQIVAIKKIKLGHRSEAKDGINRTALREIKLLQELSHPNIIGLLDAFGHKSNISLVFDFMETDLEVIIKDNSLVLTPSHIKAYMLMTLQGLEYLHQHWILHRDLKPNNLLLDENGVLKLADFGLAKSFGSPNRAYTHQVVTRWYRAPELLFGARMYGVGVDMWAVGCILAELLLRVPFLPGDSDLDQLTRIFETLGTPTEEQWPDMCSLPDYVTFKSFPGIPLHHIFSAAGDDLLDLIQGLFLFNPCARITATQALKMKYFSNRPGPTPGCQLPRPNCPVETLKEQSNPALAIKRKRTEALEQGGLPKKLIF
Chain of CDK7/cyclinH/MAT1(h) (P51946 whole entry partner): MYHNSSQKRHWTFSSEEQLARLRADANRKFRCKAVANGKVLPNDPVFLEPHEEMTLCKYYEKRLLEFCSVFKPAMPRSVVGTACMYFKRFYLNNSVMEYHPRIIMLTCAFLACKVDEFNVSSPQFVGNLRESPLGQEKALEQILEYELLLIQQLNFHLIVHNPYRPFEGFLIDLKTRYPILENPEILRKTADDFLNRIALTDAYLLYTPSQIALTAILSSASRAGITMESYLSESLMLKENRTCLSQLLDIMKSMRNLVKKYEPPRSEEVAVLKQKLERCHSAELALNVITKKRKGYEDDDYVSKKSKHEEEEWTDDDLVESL
Chain of CDK7/cyclinH/MAT1(h) (P51948 whole entry partner): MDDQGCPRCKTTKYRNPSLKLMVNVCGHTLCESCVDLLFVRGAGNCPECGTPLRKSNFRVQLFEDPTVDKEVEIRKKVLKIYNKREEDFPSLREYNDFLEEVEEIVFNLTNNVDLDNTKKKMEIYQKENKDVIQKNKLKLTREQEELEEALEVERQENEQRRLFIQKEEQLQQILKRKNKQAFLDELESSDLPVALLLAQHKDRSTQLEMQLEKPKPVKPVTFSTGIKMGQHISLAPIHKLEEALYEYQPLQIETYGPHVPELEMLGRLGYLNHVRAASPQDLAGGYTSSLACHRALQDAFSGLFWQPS

CDK9/cyclin T1(h) = CDK9/cyclin T1(h) (Homo sapiens, UniProt P50750); test: Merck Millipore KinaseProfiler; format: biochemical
Chain of CDK9/cyclin T1(h) (P50750 whole entry): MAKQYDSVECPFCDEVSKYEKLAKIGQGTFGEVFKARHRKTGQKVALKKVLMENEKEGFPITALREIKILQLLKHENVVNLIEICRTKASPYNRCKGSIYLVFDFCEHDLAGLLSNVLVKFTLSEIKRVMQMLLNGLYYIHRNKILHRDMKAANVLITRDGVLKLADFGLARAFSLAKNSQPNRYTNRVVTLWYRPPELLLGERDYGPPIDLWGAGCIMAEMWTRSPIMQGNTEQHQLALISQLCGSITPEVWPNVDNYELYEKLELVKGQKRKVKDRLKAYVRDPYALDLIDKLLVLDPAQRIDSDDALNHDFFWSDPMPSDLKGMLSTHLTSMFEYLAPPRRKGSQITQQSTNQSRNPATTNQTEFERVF
Chain of CDK9/cyclin T1(h) (O60563 whole entry partner): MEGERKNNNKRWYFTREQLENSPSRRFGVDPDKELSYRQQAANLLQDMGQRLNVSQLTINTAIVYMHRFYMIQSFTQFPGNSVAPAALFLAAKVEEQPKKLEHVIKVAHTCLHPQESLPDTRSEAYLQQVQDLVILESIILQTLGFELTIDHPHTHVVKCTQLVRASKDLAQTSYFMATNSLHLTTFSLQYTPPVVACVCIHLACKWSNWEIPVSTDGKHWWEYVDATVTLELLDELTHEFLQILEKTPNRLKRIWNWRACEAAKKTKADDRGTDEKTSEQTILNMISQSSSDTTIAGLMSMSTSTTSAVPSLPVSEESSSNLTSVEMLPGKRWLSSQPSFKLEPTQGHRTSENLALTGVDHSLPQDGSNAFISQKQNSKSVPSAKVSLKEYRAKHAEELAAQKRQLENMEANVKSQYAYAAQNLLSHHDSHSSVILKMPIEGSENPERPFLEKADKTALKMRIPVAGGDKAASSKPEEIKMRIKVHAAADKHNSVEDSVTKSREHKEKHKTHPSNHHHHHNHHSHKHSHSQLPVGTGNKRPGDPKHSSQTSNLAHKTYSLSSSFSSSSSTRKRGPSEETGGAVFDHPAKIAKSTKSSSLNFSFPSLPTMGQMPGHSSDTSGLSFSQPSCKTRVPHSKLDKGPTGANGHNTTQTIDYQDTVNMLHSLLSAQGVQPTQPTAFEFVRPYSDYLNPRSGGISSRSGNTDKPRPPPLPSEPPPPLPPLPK

**Q.** With `COc1cc(F)ccc1-c1ncnc(Nc2cccc(C[S@](C)(=N)=O)c2)n1` [BAY 1143572, (R)‐4‐(4‐Fluoro‐2‐methoxyphenyl)‐N‐{3‐[(S‐methylsulfonimidoyl)methyl]phenyl}‐1,3,5‐triazin‐2‐amine] as the compound, how does the pIC50 (HeLa cells) read?
**A.** 6.04

**Q.** What about the pIC50 (MOLM‐13 cells) of the same compound?
**A.** 6.51

**Q.** And the pIC50 (MV4‐11 cells)?
**A.** 6.05

**Q.** What about the “Sw, pH 6.5” value [1] of the same compound?
**A.** 479 mg L^−1

**Q.** And the “CLb, rat in vivo, i.v.” value (Rat PK study in vivo)?
**A.** 18.3 mL/min/kg

**Q.** And the pIC50 [2]?
**A.** < 4.70

**Q.** What about the “Induction of CYP3A4 in vitro” value (CYP3A4) of the same compound?
**A.** not observed

**Q.** And the “mean body weight reduction” value (MOLM‐13 human AML model)?
**A.** less than 10%

**Q.** And the MTD at 14 days [3]?
**A.** 12 mg/kg

**Q.** What about the tumor response (MV4‐11 human AML model; 12 mg kg^−1 daily oral for 14 days) of the same compound?
**A.** almost complete tumor remission

**Q.** What about the “tumor regrowth at the conclusion of the experiment” value (MV4‐11 human AML model; 57 days after initial inoculation, after 12 mg kg^−1 daily for 14 days) of the same compound?
**A.** no tumor regrowth in nine of the 12 test animals

**Q.** And the pIC50 (CDK3/cyclinE(h))?
**A.** 6.05

**Q.** And the “activity against Flt3” value (Flt3(h))?
**A.** did not show relevant activity

**Q.** Which “Selectivity vs. CDK2, ratio of IC50 values” (CDK2/CycE) does the source give for `COc1cc(F)ccc1-c1ncnc(Nc2cccc(CS(N)(=O)=O)c2)n1` [BAY‐958, 1‐(3‐{[4‐(4‐Fluoro‐2‐methoxyphenyl)‐1,3,5‐triazin‐2‐yl]amino}phenyl)methanesulfonamide] here?
**A.** 98

**Q.** And the pIC50 (HeLa cells)?
**A.** 6.00

**Q.** And the pIC50 (MOLM‐13 cells)?
**A.** 6.55

**Q.** And the efflux ratio at 2 h, 2 μM [4]?
**A.** 15

**Q.** What about the “CLb, ratHep” value (rat hepatocytes) of the same compound?
**A.** 5.5 mL/min/kg

**Q.** What about the “CLb, ratLM” value [5] of the same compound?
**A.** 8 mL/min/kg

**Q.** What about the “CLb, rat in vivo, i.v.” value (Rat PK study in vivo) of the same compound?
**A.** 8.3 mL/min/kg and 8.33 mL/min/kg

**Q.** And the half-life (Rat PK study in vivo; male, Wistar, plasma, iv)?
**A.** 42 min

**Q.** And the “F, rat in vivo, p.o.” value (Rat PK study in vivo; oral bioavailability)?
**A.** 10%

**Q.** What about the blood plasma ratio [6] of the same compound?
**A.** 3

**Q.** And the pIC50 [2]?
**A.** < 4.70

**Q.** What about the “Induction of CYP3A4 in vitro” value (CYP3A4) of the same compound?
**A.** not observed

**Q.** What about the pIC50 (CDK1/cyclinB(h)) of the same compound?
**A.** 6.16

**Q.** And the pIC50 (CDK2/cyclinE(h))?
**A.** 6.33

**Q.** And the pIC50 (CDK3/cyclinE(h))?
**A.** 6.24

**Q.** What about the pIC50 (CDK5/p35(h)) of the same compound?
**A.** 6.10

**Q.** And the pIC50 (CDK6/cyclinD3(h))?
**A.** 5.36

**Q.** What about the pIC50 (CDK7/cyclinH/MAT1(h)) of the same compound?
**A.** < 5.00

**Q.** What about the pIC50 (CDK9/cyclin T1(h)) of the same compound?
**A.** 8.30

**Q.** And the “selectivity vs. other CDKs” value (CDK9/cyclin T1(h); Millipore panel, relative to CDK9/CycT1 IC50)?
**A.** > 90

— paper PMC5698704 (Chemmedchem, 2017)
